Results: the SangsterLogP compilation

Test: method code SF, from Hansch, C. & Leo, A. (1987). Log P database [Dataset]. Pomona College Medicinal Chemistry Project.

SMILES | logP | other results
O=C(Nc1ccc(Cl)c(Cl)c1)C1CCCCC1 | 4.72 | –
CN(Cc1ccccc1)c1ccccc1 | – | logD (pH 13.0): 4.22
O=[N+]([O-])c1ccc2oncc2c1 | – | logD (pH 5.0): 1.46
NC(=O)CI | -0.19 | –
c1cnc2ncncc2n1 | -0.58 | –
CCCCOc1cccc(C=C(C(=O)OCC)C(=O)OCC)c1 | 4.03 | –
CN(C)c1cccc2ccccc12 | 3.46 | –
NC(=O)C(=Cc1cccc(F)c1)C(N)=O | 0.1 | –
CC(=O)Oc1cccc([N+](=O)[O-])c1 | 1.82 | –
CC1(C)N=C(N)N=C(N)N1c1ccc(OCC(=O)N2CCOCC2)cc1 | – | logD (pH 13.0): -1.18
COc1ccc2c(c1)N=C(C)NS2(=O)=O | 0.56 | –
CCCC(O)CCC | 2.22 | –
CO[C@H]1C=CO[C@@]2(C)Oc3c(C)c(O)c4c(O)c(c(CN5CCN(C)CC5)c(O)c4c3C2=O)NC(=O)/C(C)=C\C=C/[C@@H](C)[C@@H](O)[C@@H](C)[C@H](O)[C@H](C)[C@@H](OC(C)=O)[C@H]1C | 1.76 | –
CC1CCCC1 | 3.37 | –
FC(F)(F)C(F)(F)c1ccccc1 | 3.36 | –
O=c1cn[nH]c(=O)[nH]1 | – | logD (pH 7.4): -1.37
CC(=O)OCC(F)(F)F | 1.18 | –
CCCCCCCCOC(=O)c1ccccc1C(=O)OCCCCCCCC | 5.22 | –
COc1ccc2cnccc2c1 | 2.22 | –
CN(CCO)C1=C(N2CC2)C(=O)C(N(C)CCO)=C(N2CC2)C1=O | -0.37 | –
O=C(O)CNC(=O)c1ccccc1 | – | logD (pH 1.0): 0.31
NNc1ncnc2c([C@@H]3O[C@H](CO)[C@@H](O)[C@H]3O)n[nH]c12 | -1.42 | –
c1ccc2nc3ccccc3nc2c1 | 2.84 | –
C=C(C)C | 2.34 | –
Nc1n[nH]c(N)n1 | – | logD (pH 7.4): -1.61
O=S(=O)(N=[N+]([O-])c1ccccc1)c1ccccc1 | 2.33 | –

SMILES | logP | other results
CCOP(=S)(OCC)SCSCC | 3.24 | –
OCC(F)(F)C(F)(F)C(F)(F)F | 1.81 | –
C=CCO | 0.17 | –
C=COCC | 1.04 | –
O=C(O)COc1ccc(Cl)c([N+](=O)[O-])c1 | 1.85 | –
Oc1ccccc1C(F)(F)F | 2.73 | –
Cc1ccccc1/C=N/O | 2.53 | –
NC1=Nc2cc(Cl)ccc2S(=O)(=O)N1 | 0.91 | –
CC(=O)c1cccc(OC(=O)N(C)C)c1 | 1.18 | –
O=C(C=Cc1ccco1)c1ccco1 | 2.34 | –
CCCCSC(C)(C)C(N)=O | 1.81 | –
O=S(=O)(NO)c1ccccc1 | 0.48 | –
O=C1c2ccccc2-c2ccccc21 | 3.58 | –
CCNP(=O)(OC)Oc1cc(Cl)c(Cl)cc1Cl (stereo not given) | 3.18 | –
O=C1C(=O)c2cccc3cccc1c23 | 1.95 | –
CN1CCCC[C@H]1c1cccnc1 | – | logD (pH 11.0): 0.96
CCCOCCC | 2.03 | –
CCNc1nc(NC(C)C)nc(SC)n1 | 2.98 | –
Cc1c(N(C)C)c(=O)n(C)c(=O)n1-c1ccc(Cl)cc1 | – | logD (pH 7.4): 2.32
CC(C)(Cc1ccccc1)NC(=O)N(CCCl)N=O | 3.73 | –
COc1ccccc1/N=N/N(C)C | – | logD (pH 7.4): 2.34
CC1=Nc2ccc(S(=O)(=O)N(C)C)cc2S(=O)(=O)N1 | 0.32 | –
CCOC(=O)c1ccccn1 | 0.88 | –
COc1cccc(C=C(C(C)=O)C(C)=O)c1 | 1.79 | –
CC(=O)OCC(COC(C)=O)OC(C)=O | 0.25 | –
OCCC(F)(F)F | 0.39 | –

SMILES | logP | other results
CC(=O)OCCOC(=O)c1ccccc1 | 1.85 | –
O=NN(CCCl)C(=O)NC1CCC(O)CC1 (stereo not given) | 1.11 | –
COC(=O)C[C@](O)(CCCC(C)(C)O)C(=O)OC1C(OC)=C[C@]23CCCN2CCc2cc4c(cc2[C@H]13)OCO4 (stereo not given in full) | 0.82 | –
C[C@]12CCC(=O)C=C1CC[C@@H]1[C@@H]2CC[C@]2(C)C(=O)CC[C@@H]12 | 2.75 | –
O=C(c1ccccc1)C(F)(F)F | 2.15 | –
CCC[C@@H]1C[C@@H](C(=O)N[C@@H]([C@H]2O[C@H](SCC)[C@H](O)[C@@H](O)[C@H]2O)[C@@H](C)O)N(CC)C1 | – | logD (pH 12.0): 1.91
Oc1cc(-c2ccccc2)on1 | – | logD (pH 1.0): 2.55
CCC(C)NC(=O)C(=Cc1ccccc1)OC (stereo not given) | 2.86 | –
CCOP(=S)(OCC)Oc1ncn(-c2ccccc2)n1 | 3.55 | –
CC(=O)N(C)/N=N/c1ccc(C)cc1 | 3.23 | –
Nc1ccc(C2CCCCC2)cc1 | 3.65 | –
Cc1ccc2c(ccc[n+]2[O-])c1 | 0.95 | –
Sc1ncccn1 | -0.97 | –
Cc1ccc(CO)cc1 | 1.59 | –
Cn1nnnc1SCc1ccccc1 | 1.63 | –
O=[N+]([O-])c1ccc(C=Cc2ncccn2)o1 | 1.34 | –
CCOc1cn[nH]c1 | 0.8 | –
CC12CCC(=O)C=C1CCC1C2CCC2(C)C1CCC21CCC(=O)O1 (stereo not given) | – | logD (pH 7.4): 2.75
CCOC(=O)c1ccccc1N | 2.57 | –
CCN(CC)CCNc1ccc(C)c(Cl)c1 | 4.14 | –
CC(=O)Nc1ccc2c(=O)c(C)c(C)oc2c1[N+](=O)[O-] | 1.61 | –
c1cncc(CCN2CCCC2)c1 | – | logD (pH 11.0): 1.34
O=C(Nc1ccccc1)NC1CC(O)C(CO)OC1O (stereo not given) | -0.61 | –
CCN(CC)CC(O)c1ccccc1 (stereo not given) | – | logD (pH 13.0): 2.02
COc1ccc2[nH]c(CC(O)c3nc4cc(OC)ccc4[nH]3)nc2c1 (stereo not given) | 0.76 | –
Cn1c(=O)ccc2ccccc21 | 1.45 | –

SMILES | logP | other results
ICCCc1ccccc1 | 3.9 | –
CC(C)C1=Nc2cc(Cl)ccc2S(=O)(=O)N1 | 2 | –
NS(=O)(=O)NCCc1ccccc1 | 0.81 | –
CCOC(=O)CON=Cc1ccc(OCCOC(=O)c2cc(OC)c(OC)c(OC)c2)c(OC)c1 | 3.26 | –
O=[N+]([O-])c1ccsc1 | 1.55 | –
O=C(O)c1cc(=O)c2c(OCC(O)COc3cccc4oc(C(=O)O)cc(=O)c34)cccc2o1 | 1.92 | –
Nc1cccc2cc3ccccc3nc12 | 3.26 | –
C=C(C=O)CC | 1.24 | –
O=C(O)c1ccsc1 | 1.5 | –
CCOCCOC(=O)C(C#N)=C(CC)Nc1ccc([N+](=O)[O-])cc1 | 2.6 | –
CCOC(=O)CC(=O)C=Cc1ccccc1C | 2.66 | –
CCCN(CCC)/N=C/c1c2c(O)c3c(O)c(C)c4c(c3c1O)C(=O)C(C)(O/C=C\C(OC)C(C)C(OC(C)=O)C(C)C(O)C(C)C(O)C(C)/C=C\C=C(C)C(=O)N2)O4 (stereo not given) | 3.83 | –
N#CCC(N)=C(C#N)C#N | -0.13 | –
CCOC(=O)C(=Cc1ccccc1OC)C(C)=O | 2.39 | –
Cc1c(NCC(C)C)c(=O)n(-c2ccccc2)c(=O)n1C | – | logD (pH 7.4): 1.48
COc1cccc2cccnc12 | 1.84 | –
CCN(CC)c1c(C)n(C)c(=O)n(-c2ccccc2)c1=O | – | logD (pH 7.4): 2.11
CNC=CCCc1cccnc1 | – | logD (pH 11.0): 1.13
CN(C(=O)CCS(C)=O)c1ccc(S(=O)(=O)N(C)C)cc1 (stereo not given) | -0.67 | –
NC(=O)c1ncn2c(=O)n(CCCl)nnc12 | -0.47 | –
CCCc1ccncc1 | 2.1 | –
CC(=O)OC1OC(C)C(OC(C)=O)C(OC(C)=O)C1NC(=O)N(CCCl)N=O (stereo not given) | 1.32 | –
OC[C@@H]1C[C@H]1c1ccccc1 | 1.95 | –
CCOC(=O)c1ccc(NC(=O)C(F)(F)F)cc1 | 2.25 | –
CCN(CC)CCc1cccnc1 | – | logD (pH 11.0): 1.23
NCc1ccc([N+](=O)[O-])cc1 | – | logD (pH 13.0): 1.06

SMILES | logP | other results
CC(=O)Nc1cccc(NC(C)=O)c1 | 0.5 | –
CCOC(C)OCC | 1.49 | –
CNC1(c2ccccc2Cl)CCCCC1=O (stereo not given) | – | logD (pH 13.0): 2.18
CCCCO[N+](=O)[O-] | 2.15 | –
CC(=O)OC[C@@H](OC(C)=O)[C@@H](OC(C)=O)[C@H](OC(C)=O)[C@H](C=O)OC(C)=O | 0.63 | –
CCOC(=O)NC(O)C(Cl)(Cl)Cl (stereo not given) | 1.84 | –
Cn1c(=O)c(=O)n(C)c2ccccc21 | 0.08 | –
O=[N+]([O-])c1ccc(OCCn2ccnn2)cc1 | 1.19 | –
O=C1CCN(c2ccccc2)N1 | 0.89 | –
Cc1cc(C(=O)NNCc2ccccc2)no1 | – | logD (pH 7.4): 1.49
Oc1ccccc1-c1ccccc1 | 3.09 | –
COc1ccccc1C(=O)N(C)C | 0.71 | –
NNC(=O)c1ccccc1 | 0.21 | –
O=C1OCc2ccccc21 | 0.8 | –
CC(C)c1ccccc1O | 2.88 | –
CN(C)CCc1cccnc1 | – | logD (pH 11.0): 0.82
O=Cc1cccc(C(F)(F)F)c1 | 2.47 | –
O=S(=O)(Nc1ccccc1)c1ccccc1 | 2.58 | –
CC1=NCCN1CCO | 0.04 | –
CCOC(=O)C(=Cc1cccc(OCC)c1)C(C)=O | 2.71 | –
O=[N+]([O-])c1ccc2ncccc2c1 | 1.84 | –
C#CCN(C)/N=N/c1nc[nH]c1C(N)=O | – | logD (pH 7.4): 0.33
COP(=O)(OC)Oc1ccccc1 | 1.22 | –
C(#Cc1ccccc1)c1ccccc1 | 4.78 | –
NN=C(c1ccccc1)c1ccccc1 | 2.79 | –
Cc1c(N(C)C)c(=O)n(CCO)c(=O)n1-c1ccccc1 | – | logD (pH 7.4): 1.12

SMILES | logP | other results
FS(F)(F)(F)(F)c1ccccc1 | 3.36 | –
Cc1c(N2CCOCC2)c(=O)n(C)c(=O)n1C1CCCCC1 | – | logD (pH 7.4): 2.39
CCCc1c(OCCCCc2nnn[nH]2)ccc(C(C)=O)c1O | – | logD (pH 2.2): 3.82
CCOC(=O)C(=Cc1ccccc1)C(=O)OCC | 3.13 | –
CNC(=S)NC12CC3CC(CC(C3)C1)C2 | 2.67 | –
CCOP(=O)(OCC)Oc1ccc(SC)c(C)c1 | 3.28 | –
CC(C)(O)C(F)(F)F | 1.04 | –
COc1cc(Cl)cc(Cl)c1 | 3.74 | –
CCCCN(CCCC)CC(O)c1ccccc1 (stereo not given) | – | logD (pH 13.0): 3.16
O/N=C/CCc1ccccc1 | – | logD (pH 7.4): 1.56
CN(C)/N=N/c1ccc(C#N)cc1 | 2.35 | –
Cc1nnc2n1-c1sc(Br)cc1C(c1ccccc1Cl)=NC2 | 2.79 | –
COc1ccc(Cc2cnc(N)nc2N)c(OC)c1OC | – | logD (pH 13.0): 1.52
CNC(=O)O/N=C(\C)C(C)(C)[N+](=O)[O-] | 0.66 | –
CCOC(=O)C(=Cc1cccc(C)c1)C(=O)OCC | 3.55 | –
CC(=O)N[C@@H]1CC(=O)N(c2ccccc2)C1=O | -0.33 | –
Nc1ccc2ccccc2c1S(=O)(=O)O | -1.16 | –
CCOC(=O)C(=Cc1cccc(Cl)c1)C(=O)OCC | 3.49 | –
CCSCC1=Nc2cc(Cl)ccc2S(=O)(=O)N1 | 2.26 | –
Cc1ccccc1Cl | 3.42 | –
Nc1ccc(I)cc1 | 2.34 | –
CCOC(=O)c1cccs1 | 2.33 | –
CSc1ccc(C=NN=C(N)NN)cc1 | 1.35 | –
O=Cc1cccs1 | 1.02 | –
CCC(C)NC(=O)/C(Cl)=C\c1ccccc1 (stereo not given) | 3.52 | –
